Results reported in patent US5514694A, “Peptidyl ketoamides” (Georgia Tech Research Corp, priority 1993, dated 1996).
Like-named read-outs stand apart in the source and are kept apart here.

Experiments:
Type in all cases: biochemical
calpain II from rabbit = assay: Calpain II inhibition, Suc-Leu-Tyr-AMC hydrolysis (KI); conditions: Table 1, Z-Leu--AA--CONHR; read-out: KI Cal II
Experimental: (§1) HEPES, heparin, and A23187 were obtained from Calbiochem. Suc-Leu-Tyr-AMC and chromogenic substrates were obtained from Sigma. Calpain I was purified from human erythrocytes according to the method of Kitahara (Kitahara et al., J. Biochem. 95, 1759-1766) omitting the Blue-Sepharose step. Calpain II from rabbit muscle and cathepsin B were purchased from Sigma. Papain was purchased from Calbiochem.
(§2) Peptide α-ketoamides were assayed as reversible enzyme inhibitors. Various concentrations of inhibitors in Me2 SO were added to the assay mixture which contained buffer and substrate. The reaction was started by the addition of the enzyme and the hydrolysis rates were followed spectrophotometrically or fluorimetrically.
(§3) Calpain I from human erythrocytes and calpain II from rabbit were assayed using Suc-Leu-Tyr-AMC Sasaki et al., J. Biol. Chem. 259, 12489-12494 (1984); incorporated herein by reference!, and the AMC (7-amino-4-methylcoumarin) release was followed fluorimetrically (excitation at 380 nm, and emmision at 460 nm). Calpains were assayed in 25 mM Tris pH=8.0, 10 mM CaC12. Fluorescence was followed using a Gilson FL-1A fluorometer or a Perkin-Elmer 203 Fluorescence spectrometer. Cathepsin B was assayed in 20 mM sodium acetate pH=5.2, 0.5 mM dithiothreitol using Bz-Phe-Val-Arg-p-nitroanilide as substrate. Alternately, cathepsin B was assayed with Z-Arg-Arg-AFC Barrett and Kirschke, Methods Enzymol. 80, 535-561 (1981); incorporated herein by reference!, and the AFC (7-amino-4-trifluoromethylcoumarin) release was followed fluorimetrically (excitation at 400 nm and emmision at 505 nm). Papain was assayed in 100 mM KPO4, 1 mM EDTA, 2.5 mM cysteine pH=6.0 using Bz-Arg-AMC or Bz-Arg-NA Kanaoka et al., Chem. Pharm. Bull. 25, 3126-3128 (1977); incorporated herein by reference! as a substrate. The AMC (7-amino-4-methylcoumarin) release was followed fluorimetrically (excitation at 380 nm, and emmision at 460 nm). Enzymatic hydrolysis rates were measured at various substrate and inhibitor concentrations, and KI values were determined by either Lineweaver-Burk plots or Dixon plots.
(§4) A 0.1M Hepes, 0.5M NaCl, pH 7.5 buffer was utilized for human leukocyte elastase (HLE), porcine pancreatic elastase (PPE), chymotrypsin and cathepsin G. A 0.1 Hepes, 0.01 M CaCl2, pH 7.5 buffer was utilized for trypsin, plasmin, and coagulation enzymes. A 50 mM Tris.HCl, 2 mM EDTA, 5 mM cysteine, pH 7.5 was used as a buffer for papain. A 88 mM KH2 PO4, 12 mM Na2 HPO4, 1.33 mM EDTA, 2.7 mM cysteine, pH 6.0 solution was used as a buffer for cathepsin B. A 20 mM Hepes, 10 mM CaCl2, 10 mM mercatoethanol, pH 7.2 buffer was utilized for calpain I and calpain II.

[1] = molecular target: T1, Calpain I from human erythrocytes (Homo sapiens, UniProt P07384); assay: Calpain I inhibition, Suc-Leu-Tyr-AMC hydrolysis (KI); conditions: read-out: KI Cal I
T1 construct: Calpain I was purified from human erythrocytes; from tissue; host or cells: human erythrocytes
T1 sequence (P07384 1-714): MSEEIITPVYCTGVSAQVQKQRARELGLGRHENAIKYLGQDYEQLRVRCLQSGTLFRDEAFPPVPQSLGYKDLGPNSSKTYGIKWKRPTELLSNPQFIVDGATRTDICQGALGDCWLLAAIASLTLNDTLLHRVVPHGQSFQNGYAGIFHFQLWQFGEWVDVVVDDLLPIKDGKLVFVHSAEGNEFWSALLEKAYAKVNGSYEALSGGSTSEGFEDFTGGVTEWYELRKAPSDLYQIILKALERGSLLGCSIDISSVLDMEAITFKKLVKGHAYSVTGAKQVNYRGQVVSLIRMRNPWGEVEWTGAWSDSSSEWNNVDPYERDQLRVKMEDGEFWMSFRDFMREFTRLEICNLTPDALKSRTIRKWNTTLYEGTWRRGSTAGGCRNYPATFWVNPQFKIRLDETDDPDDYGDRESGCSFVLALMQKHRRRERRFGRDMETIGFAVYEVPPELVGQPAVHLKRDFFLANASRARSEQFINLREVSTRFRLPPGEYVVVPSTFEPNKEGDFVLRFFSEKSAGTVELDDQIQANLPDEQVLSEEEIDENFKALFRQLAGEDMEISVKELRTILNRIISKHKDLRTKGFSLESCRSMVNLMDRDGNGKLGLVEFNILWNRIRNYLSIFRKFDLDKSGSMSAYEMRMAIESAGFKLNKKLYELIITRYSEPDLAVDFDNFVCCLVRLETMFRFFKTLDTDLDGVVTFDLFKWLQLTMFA
T1 sequence (P04632 1-268 partner): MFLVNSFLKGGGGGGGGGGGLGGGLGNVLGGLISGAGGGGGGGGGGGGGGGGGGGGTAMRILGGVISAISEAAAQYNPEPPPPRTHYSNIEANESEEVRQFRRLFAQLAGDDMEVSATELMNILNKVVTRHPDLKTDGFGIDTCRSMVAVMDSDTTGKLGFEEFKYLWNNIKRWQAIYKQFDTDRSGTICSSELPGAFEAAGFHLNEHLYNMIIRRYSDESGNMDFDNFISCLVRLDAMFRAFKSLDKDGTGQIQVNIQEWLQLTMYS
In short: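 Human erythrocyte calpain I and rabbit calpain II were followed by fluorimetric AMC release from Suc-Leu-Tyr-AMC at pH 8.0 (25 mM Tris, 10 mM CaCl2). Cathepsin B was run at pH 5.2 with 0.5 mM DTT on a p-nitroanilide substrate, or with Z-Arg-Arg-AFC (ex 400/em 505 nm). Enzyme was added last, and KI was taken from Dixon or Lineweaver-Burk analysis.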

cathepsin B = molecular target: T2, cathepsin B (Homo sapiens, UniProt P07858); assay: Cathepsin B inhibition (KI); conditions: Table 1, Z-Leu--AA--CONHR; read-out: KI Cat B
T2 construct: purchased Sigma
Experimental: as §1, §2, §3, §4

[2] = molecular target: T3, human leukocyte elastase (HLE) (Homo sapiens, UniProt P08246); assay: HLE inhibition, MeO-Suc-Ala-Ala-Pro-Val-NA hydrolysis; conditions: for IC50: Table 4, Z-Leu--AA--CONH-R
T3 sequence (P08246 30-267): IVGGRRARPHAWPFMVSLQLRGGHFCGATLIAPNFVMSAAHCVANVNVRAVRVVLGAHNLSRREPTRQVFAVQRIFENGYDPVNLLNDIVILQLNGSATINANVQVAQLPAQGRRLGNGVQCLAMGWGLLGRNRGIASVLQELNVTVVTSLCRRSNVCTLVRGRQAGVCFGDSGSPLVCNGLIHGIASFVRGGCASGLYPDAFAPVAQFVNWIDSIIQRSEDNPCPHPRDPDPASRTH
Experimental: as §2, §4
(§5) HLE and PPE were assayed with MeO-Suc-Ala-Ala-Pro-Val-NA and Suc-Ala-Ala-Ala-NA, respectively Nakajima et al., J. Biol. Chem. 254, 4027-4032 (1979); incorporated herein by reference!. Human leukocyte cathepsin G and chymotrypsin Aα were assayed with Suc-Val-Pro-Phe-NA Tanaka et al., Biochemistry 24, 2040-2047 (1985); incorporated herein by reference!. The hydrolysis of peptide 4-nitroanilides was measured at 410 nm ε410 =8800 M^-1 cm^-1; Erlanger et al., Arch. Biochem. Biophys. 95, pp 271-278 (1961); incorporated herein by reference!. Trypsin, thrombin, human plasma kallikrein, porcine pancreatic kallikrein, human factor XIa, and human plasmin were assayed with Z-Arg-SBzl or Z-Gly-Arg-SBu-i McRae et al., Biochemistry 20, 7196-7206 (1981); incorporated herein by reference!. All peptide thioester hydrolysis rates were measured with assay mixtures containing 4,4'-dithiodipyridine ε324 =19800 M^-1 cm^-1; Grasetti & Murray, Arch. Biochem. Biophys. 119, 41-49 (1967); incorporated herein by reference!.

[3] = molecular target: T4, Human leukocyte cathepsin G (Homo sapiens, UniProt P08311); assay: Cathepsin G inhibition, Suc-Val-Pro-Phe-NA hydrolysis; conditions: for IC50: Table 4, Z-Leu--AA--CONH-R
T4 sequence (P08311 21-255): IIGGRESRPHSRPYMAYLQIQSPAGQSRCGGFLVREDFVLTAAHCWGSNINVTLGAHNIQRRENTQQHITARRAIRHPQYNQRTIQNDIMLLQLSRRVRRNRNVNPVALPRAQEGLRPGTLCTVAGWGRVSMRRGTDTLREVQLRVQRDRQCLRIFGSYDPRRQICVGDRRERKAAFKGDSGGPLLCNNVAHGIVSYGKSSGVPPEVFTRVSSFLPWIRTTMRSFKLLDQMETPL
Experimental: as §2, §4, §5

Molecule	IC50 [2]	IC50 [3]	also measured
CCC(NC(=O)C(CC(C)C)NC(=O)OCc1ccccc1)C(=O)C(=O)NCCCN1CCOCC1 (stereo not drawn) [Z-Leu-Abu-CONH-(CH2)3 -4-morpholinyl, Z-Leu-Abu-CONH--(CH2)3 -4-Morpholinyl]	> 217 µM	–	Ki (calpain II from rabbit): 0.041 µM; Ki ([1]; Table 1, Z-Leu--AA--CONHR): 0.14 µM; Ki (cathepsin B): 6.9 µM
CC[C@H](NC(=O)[C@H](CC(C)C)NC(=O)OCc1ccccc1)C(=O)C(=O)NCC(O)c1ccc(OCc2ccccc2)cc1 (stereo partly drawn) [Z-Leu-Abu-CONH--CH2 CH(OH)C6 H4 (4-OCH2 Ph)]	–	> 102 µM	Ki ([1]; Table 2, Z-Leu--AA--CONH--CH2 CH(OH)-R): 0.08 µM
CCCCCCCNC(=O)C(=O)C(CC)NC(=O)C(CC(C)C)NC(=O)OCc1ccccc1 (stereo not drawn) [Z-Leu-Abu-CONH-C7 H15]	52 µM	> 116 µM	–
CCCCCCCCNC(=O)C(=O)C(CC)NC(=O)C(CC(C)C)NC(=O)OCc1ccccc1 (stereo not drawn) [Z-Leu-Abu-CONH-C8 H17]	45 µM	> 217 µM	–
CCCCCCCCCNC(=O)C(=O)C(CC)NC(=O)C(CC(C)C)NC(=O)OCc1ccccc1 (stereo not drawn) [Z-Leu-Abu-CONH-C9 H19]	78 µM	150 µM	–
CCC(NC(=O)C(CC(C)C)NC(=O)OCc1ccccc1)C(=O)C(=O)NCc1ccco1 (stereo not drawn) [Z-Leu-Abu-CONH-CH2 -2-furyl, Z-Leu-Abu-CONH--CH2 -2-Furyl]	38 µM	–	Ki (calpain II from rabbit): 0.033 µM; Ki ([1]; Table 1, Z-Leu--AA--CONHR): 0.8 µM; Ki (cathepsin B): 6 µM
CCC(NC(=O)C(CC(C)C)NC(=O)OCc1ccccc1)C(=O)C(N)=O (stereo not drawn) [Z-Leu-Abu-CONH-H]	> 120 µM	> 217 µM	–
CCC(NC(=O)C(CC(C)C)NC(=O)OCc1ccccc1)C(=O)C(=O)NCC(C)C (stereo not drawn) [Z-Leu-Abu-CONH-i-Bu]	78 µM	134 µM	–
CCCCNC(=O)C(=O)C(CC)NC(=O)C(CC(C)C)NC(=O)OCc1ccccc1 (stereo not drawn) [Z-Leu-Abu-CONH-n-Bu]	63 µM	148 µM	–
CCCNC(=O)C(=O)C(CC)NC(=O)C(CC(C)C)NC(=O)OCc1ccccc1 (stereo not drawn) [Z-Leu-Abu-CONH-n-Pr]	> 120 µM	> 217 µM	–
CCCC(NC(=O)C(CC(C)C)NC(=O)OCc1ccccc1)C(=O)C(=O)NCCCN1CCOCC1 (stereo not drawn) [Z-Leu-Nva-CONH-(CH2)3 -4-morpholinyl, Z-Leu-Nva-CONH--(CH2)3 -4-Morpholinyl]	–	–	Ki (calpain II from rabbit): 0.1 µM; Ki ([1]; Table 1, Z-Leu--AA--CONHR): 0.25 µM; Ki (cathepsin B): 4.2 µM
CC(C)CC(NC(=O)OCc1ccccc1)C(=O)NC(Cc1ccccc1)C(=O)C(=O)NCCc1ccccc1 (stereo not drawn) [Z-Leu-Phe-CONH-(CH2)2 Ph]	24 µM	112 µM	–
CC(C)CC(NC(=O)OCc1ccccc1)C(=O)NC(Cc1ccccc1)C(=O)C(=O)NCC(O)c1ccc(OCc2ccccc2)cc1 (stereo not drawn) [Z-Leu-Phe-CONH--CH2 CH(OH)C6 H4 (4-OCH2 Ph)]	40 µM	58 µM	–
CC(C)C[C@H](NC(=O)OCc1ccccc1)C(=O)N[C@@H](Cc1ccccc1)C(=O)C(=O)NCC(O)c1ccc(OCc2ccccc2)c(OCc2ccccc2)c1 (stereo partly drawn) [Z-Leu-Phe-CONH-C6 H3 (3,4-(OCH2 Ph)2), Z-Leu-Phe-CONH--CH2 CH(OH)C6 H3 (3,4-(OCH2 Ph)2)]	22 µM	66 µM	–
CC(C)CC(NC(=O)OCc1ccccc1)C(=O)NC(Cc1ccccc1)C(=O)C(=O)NCc1ccc2ccccc2n1 (stereo not drawn) [Z-Leu-Phe-CONH-CH2 -2-quinolinyl, Z-Leu-Phe-CONH--CH2 -2-Quinolinyl]	–	–	Ki (calpain II from rabbit): 0.023 µM; Ki ([1]; Table 1, Z-Leu--AA--CONHR): 0.11 µM; Ki (cathepsin B): 0.34 µM
CC(C)CC(NC(=O)OCc1ccccc1)C(=O)NC(Cc1ccccc1)C(=O)C(=O)NCc1ccccc1 (stereo not drawn) [Z-Leu-Phe-CONH-CH2 Ph]	40 µM	63 µM	–
CCNC(=O)C(=O)[C@H](Cc1ccccc1)NC(=O)[C@H](CC(C)C)NC(=O)OCc1ccccc1 [Z-Leu-Phe-CONH-Et, Z-Leu-Phe-CO--NH-Et]	74 µM	91 µM	–
CC(C)C[C@H](NC(=O)OCc1ccccc1)C(=O)N[C@@H](Cc1ccccc1)C(=O)C(N)=O [Z-Leu-Phe-CONH-H]	100 µM	80 µM	–
CC(C)CNC(=O)C(=O)C(Cc1ccccc1)NC(=O)C(CC(C)C)NC(=O)OCc1ccccc1 (stereo not drawn) [Z-Leu-Phe-CONH-i-Bu]	20 µM	45 µM	Ki ([2]; Table 4, in brackets under the IC50): 10 µM; Ki ([3]; Table 4, in brackets under the IC50, read-out: KI Cat G): 21 µM
Z-Leu-Abu-CONH--(CH2)2 C6 H4 (3-OCH3) [Z-Leu-Abu-CONH-(CH2)2 C6 H4 (3-OCH3)]	–	–	Ki (calpain II from rabbit): 0.086 µM; Ki ([1]; Table 1, Z-Leu--AA--CONHR): 0.11 µM; Ki (cathepsin B): 0.31 µM
